The values below come from ChEMBL document CHEMBL2311530, “The development of potential new fluorine-18 labelled radiotracers for imaging the GABA(A) receptor” (Bioorg Med Chem Lett, 2013).

pKi: −log10 of the molar value. Some results are limits rather than exact numbers.

Series [1] is described as follows: Displacement of […]FMZ from Wistar rat cerebellum GABAA receptor by competitive radioligand assay. The format is tissue-based.
Series [2] is described as follows: Lipophilicity, log D of the compound in n-octanol at pH 7.4 by shake flask method. The format is physicochemical.

In turn, `CC(C)(C)OC(=O)c1ncn2c1[C@@H]1CCCN1C(=O)c1c(Br)cccc1-2` [BRETAZENIL] gave a negative logarithm of the Ki (pKi) in series [1] of 9.52.
Regarding `CCOC(=O)c1ncn2c1CN(C)C(=O)c1cc(F)ccc1-2` [FLUMAZENIL], the logD in series [2] was determined as 1.58. Further, in series [1], the pKi was 8.89.
The matching figures for `CN1Cc2c(C(=O)OC(C)(C)C)ncn2-c2cccc(F)c2C1=O`: 0.69 and 9.12.
For `O=C(NCCCF)c1ncn2c1[C@@H]1CCCN1C(=O)c1c(Br)cccc1-2`, the pKi in series [1] was under 5.00.
Turning to `CC(C)OC(=O)c1ncn2c1CN(C)C(=O)c1c(F)cccc1-2`, in series [1], the pKi was 9.38.
Still for that read-out and setting: with `CC(C)(C)OC(=O)c1ncn2c1CN(CCF)C(=O)c1cc(F)ccc1-2` the figure was 8.05.
`CN1Cc2c(C(=O)OCCCF)ncn2-c2ccc(F)cc2C1=O`: the logD in series [2] was found to be 0.68. Also, the negative-log Ki (pKi) in series [1] is under 5.00.
With `CN1Cc2c(C(=O)NCCCF)ncn2-c2ccc(F)cc2C1=O`, the pKi in series [1] is under 5.00.
For `CN1Cc2c(C(=O)OC(C)(C)C)ncn2-c2ccnc(F)c2C1=O`, in series [1], the pKi is 8.41.
With `CCOC(=O)c1ncn2c1CN(CCF)C(=O)c1cc(F)ccc1-2`, in series [2], the log distribution coefficient (logD) came to 1.54. Besides, the negative-log Ki (pKi) in series [1] was 7.87.
In series [2], `CCOC(=O)c1ncn2c1[C@@H]1CCCN1C(=O)c1cc(F)ccc1-2` came in with a logD of 1.85. In series [1], the pKi is 8.64.
`CN1Cc2c(C(=O)NCCF)ncn2-c2ccc(F)cc2C1=O` had a pKi in series [1] of under 5.00.
In turn, `CN1Cc2c(C(=O)OCCF)ncn2-c2ccc(F)cc2C1=O` gave a logD in series [2] of 1.12. This compound gave a negative-log Ki (pKi) in series [1] of 8.40.
The compound `CN1Cc2c(C(=O)OC(C)(C)C)ncn2-c2ccc(F)cc2C1=O` showed a negative-log Ki (pKi) in series [1] of 8.72.
Turning to `CCOC(=O)c1ncn2c1CN(C)C(=O)c1cc(OCCF)ccc1-2`, the log distribution coefficient (logD) in series [2] is 1.62. The compound also had a negative-log Ki (pKi) in series [1] of 8.64.
On the same counts, the results for `CCOC(=O)c1ncn2c1CN(CC)C(=O)c1cc(F)ccc1-2` are 1.65 and 7.97.
Compound `CCOC(=O)c1ncn2c1CN(C)C(=O)c1c(F)cccc1-2` displayed a logD in series [2] of 1.25. The pKi in series [1] was 8.26.
In the case of `CN1Cc2c(C(=O)OC(C)(C)C)ncn2-c2cccc(OCCF)c2C1=O`, the negative logarithm of the Ki (pKi) in series [1] is 8.96.
For the compound `CCOC(=O)c1ncn2c1CN(Cc1ccccc1)C(=O)c1cc(F)ccc1-2`, in series [2], the logD was determined as 1.44. The negative logarithm of the Ki (pKi) in series [1] was 8.54.
`O=C(OCCCF)c1ncn2c1[C@@H]1CCCN1C(=O)c1c(Br)cccc1-2` had a negative-log Ki (pKi) in series [1] of 8.49.
In turn, `CN1Cc2c(C(=O)OC(C)(C)C)ncn2-c2ccc(OCCF)cc2C1=O` returned a logD in series [2] of 1.17. The same compound had a negative logarithm of the Ki (pKi) in series [1] of 9.28.
In series [1], `CCOC(=O)c1ncn2c1CN(C)C(=O)c1nc(F)ccc1-2` had a pKi of 7.85.
On the same count and under the same terms, to `CN1Cc2c(C(=O)OC(C)(C)C)ncn2-c2nccc(F)c2C1=O` belongs 8.89.
As for `O=C(OCCF)c1ncn2c1[C@@H]1CCCN1C(=O)c1c(Br)cccc1-2`, in series [1], the negative-log Ki (pKi) was 8.03.
On the same count and under the same terms, with `O=C(NCCF)c1ncn2c1[C@@H]1CCCN1C(=O)c1c(Br)cccc1-2` the figure was under 5.00.

As a reminder, the pKi is the Ki on a negative log10 scale, so that one unit is a factor of ten. A higher pKi goes with a low Ki. For orientation: logD means lipophilicity at a set pH, counting ionised and neutral species. Read a high logD as a more lipophilic compound.
